This is an account of results in patent US10208077B1, “Aesculin lipoic acid ester with antioxidant activity and a method of preparing the same” (SHAANXI UNIVERSITY OF SCIENCE AND TECHNOLOGY, priority 2018, dated 2019).

The assay is described as follows: DPPH radical scavenging activity assay. It is filed as biochemical. Particulars: for Scavenging activity (%): 0.2 mmol/L DPPH, 30 min, room temperature, dark, absorbance at 517 nm. From the text:
The Antioxidant Activity of the Aesculin Lipoic Acid Ester Measured by a DPPH Radical Scavenging Activity Assay
2,2-Diphenyl-1-picryl hydrazyl (DPPH) is an organic compound composed of a stable organic radical. In the DPPH molecule, due to the presence of multiple electron-withdrawing —NO2 and large π bonds of the benzene ring, nitrogen free radical is stabilized. Its methanol solution is purple and has a maximum absorption peak at 517 nm. After the addition of an antioxidant, DPPH captures an electron to be paired with the free electron, and the purple fades and turns into a yellow substance. The absorption at 517 nm disappears, and the degree of fading is quantitatively related to the number of electrons it captures. Based on this principle, a spectrophotometer is used to detect the change of the absorbance of the DPPH radical and the sample solution, and the ability of the sample to provide hydrogen atoms and scavenge free radicals can be measured.
Preparation of DPPH solution: measuring exact amount of 2,2-diphenyl-1-picryl hydrazyl (DPPH) and dissolving in methanol to prepare a 0.2 mmol/L DPPH solution, stored at 0° C. in dark.
Preparation of sample solutions: the aesculin lipoic acid ester was diluted with a concentration gradient of 1.82, 7.28, 24.2, 48.4, 72.6, 96.8, 242, 484, 726, 968 ppm with acetonitrile to prepare sample solutions to be tested. Control samples (vitamin C, aesculin, lipoic acid, a mixture of aesculin and lipoic acid) were diluted with methanol in the same manner in the same concentration gradient to obtain the corresponding four groups of control solutions.
Measuring the Scavenging Activity of the Sample Solutions:
2 mL of the sample solutions at each concentration gradient was taken, 2 mL 0.2 mmol/L DPPH solution was added, the mixture was mixed and reacted at room temperature in dark for 30 minutes, and methanol was then added to adjust final volume. The absorbance Ai was measured at 517 nm. 2 mL control solution and 2 mL methanol were mixed, and the absorbance Aj was measured. 2 mL DPPH solution and 2 mL methanol were mixed, and the absorbance A0 was measured. The scavenging activity of the sample solution and control solutions is calculated according to the following calculation formula. Scavenging activity (%)=100×[1−(Ai−Aj)/A0]
On the technique in general: DPPH is a stable violet radical that fades when it is reduced.

`O=C(O)CCCC[C@@H]1CCSS1` (racemic) [Lipoic acid]: the “Scavenging activity (%)” value was found to be 0.86% (1.82 ppm); 1.14% (7.28 ppm); 1.43% (24.2 ppm); 1.62% (48.4 ppm); 2.47% (72.6 ppm); 3.81% (96.8 ppm). Further, the “Scavenging activity (%)” value is 8.47% (242 ppm), 16.65% (484 ppm), 20.17% (726 ppm) and 21.88% (968 ppm).
For `O=C(CCCC[C@@H]1CCSS1)OCC1OC(Oc2cc3ccc(=O)oc3cc2O)C(O)C(O)C1O` (some centres unmarked) [Aesculin lipoic acid ester, aesculin lipoic acid ester], the “Scavenging activity (%)” value by setting is: (1.82 ppm) 30.93%; (7.28 ppm) 42.73%; (24.2 ppm) 57.70%; (48.4 ppm) 72.90%; (72.6 ppm) 83.5%; (96.8 ppm) 89.73%. The “Scavenging activity (%)” value (242 ppm) came to 95.30%, the “Scavenging activity (%)” value (484 ppm) was 96.50%, the “Scavenging activity (%)” value (726 ppm) was 96.83% and the “Scavenging activity (%)” value (968 ppm) is 96.94%. Besides, the “free radical clearance rate” value (achieved at a lower concentration than aesculin, lipoic acid and their mixture) is given as “more than 90%”.
As to `O=C1O[C@H]([C@@H](O)CO)C(O)=C1O` [Vitamin C, vitamin C], the “Scavenging activity (%)” value reads like this: (1.82 ppm) 23.86%; (7.28 ppm) 72.45%; (24.2 ppm) 96.70%; (48.4 ppm) 96.99%; (72.6 ppm) 97.58%; (96.8 ppm) 97.77%. The “Scavenging activity (%)” value (242 ppm) is 97.77%, the “Scavenging activity (%)” value (484 ppm) is 98.06%, the “Scavenging activity (%)” value (726 ppm) was determined as 98.06% and the “Scavenging activity (%)” value (968 ppm) is 98.06%.
Regarding `O=c1ccc2cc(O[C@@H]3O[C@H](CO)[C@@H](O)[C@H](O)[C@H]3O)c(O)cc2o1` [Aesculin], the “Scavenging activity (%)” value reads like this: (1.82 ppm) 3.44%; (7.28 ppm) 3.53%; (24.2 ppm) 5.12%; (48.4 ppm) 5.56%; (72.6 ppm) 8.12%; (96.8 ppm) 10.77%. The “Scavenging activity (%)” value by setting is: (242 ppm) 24.01%; (484 ppm) 42.54%; (726 ppm) 58.34%; (968 ppm) 70.70%.
